This note sets out measurements from PubChem BioAssay AID602191 (Broad Institute, 2012).

The structures appear in SMILES notation. Active and inactive are the calls of the source.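 How the source made its calls: active means fitted curve reaches 40% activation at a concentration no higher than the top valid tested dose; inconclusive means flat fit between 30% and 70% activation, or poor fit; inactive means uptake decrease, flat fit within 30% of zero, the rest.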

In one assay the target is Scavenger receptor class B member 1 (Mus musculus) (UniProt Q61009). Nature of the assay: enhancers of DiI-HDL lipid transfer via SR-BI – cell-based, ldlA[mSR-BI] CHO, DiI fluorescence, cherry-pick, dose response (AID 602191).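 Further: cell fluorescence from internalized DiI-labeled HDL after washing.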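 On AC40: potency of activators raising HDL uptake.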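 On activation (HDL uptake increase): 0% = median of DMSO wells and 100% = twice the DMSO signal.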 Conditions: ldlA[mSR-BI] CHO cells, 3 h, at 35 µM (top of the series).
Chain of Scavenger receptor class B member 1 (Mus musculus) (Q61009 whole entry, looked up): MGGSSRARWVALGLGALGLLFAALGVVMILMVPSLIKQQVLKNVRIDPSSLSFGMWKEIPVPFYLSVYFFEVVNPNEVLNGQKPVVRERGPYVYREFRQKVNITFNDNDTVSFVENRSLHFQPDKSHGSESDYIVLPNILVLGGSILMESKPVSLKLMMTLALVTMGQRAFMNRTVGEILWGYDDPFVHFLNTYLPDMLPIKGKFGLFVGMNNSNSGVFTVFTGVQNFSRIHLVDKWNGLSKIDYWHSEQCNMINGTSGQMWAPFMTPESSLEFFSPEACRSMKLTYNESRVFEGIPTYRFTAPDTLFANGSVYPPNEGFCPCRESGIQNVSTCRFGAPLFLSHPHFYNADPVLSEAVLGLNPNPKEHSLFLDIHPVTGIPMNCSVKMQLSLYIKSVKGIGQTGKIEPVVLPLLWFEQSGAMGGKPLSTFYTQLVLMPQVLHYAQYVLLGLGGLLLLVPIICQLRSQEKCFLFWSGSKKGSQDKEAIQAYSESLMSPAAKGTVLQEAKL
For the compound `CC(=O)c1cccc(NC(=O)COC(=O)Cn2cnc3ccccc32)c1`, the activation (HDL uptake increase) was 12.6% (inactive).

In the case of `O=C1CCCCN1CCC(=O)N1CCCC(Nc2ccccc2)C1` (configuration not stated), the activation (HDL uptake increase) is 4.76% (inactive).

As for `Cc1ccc(S(=O)(=O)N(c2cccc(C)c2)C2CCS(=O)(=O)C2)cc1` (configuration not stated), the activation (HDL uptake increase) was -9.17% (inactive).

With `O=C(Nc1ccc(S(=O)(=O)Nc2ccccc2F)cc1)N1CCCCC1`, the activation (HDL uptake increase) is -17.5% (inactive).

For `O=C(COC(=O)C1CC1)Nc1ccc(OC(F)F)cc1`, the activation (HDL uptake increase) was 4.41% (inactive).

As for `CNC(=O)c1ccc(N(Cc2ccccc2C)S(C)(=O)=O)cc1`, the activation (HDL uptake increase) was -9.16% (inactive).

Consider `CC(C(=O)NCCS(=O)(=O)c1ccc(Br)cc1)S(=O)(=O)c1ccc(Cl)cc1` (configuration not stated), for which the activation (HDL uptake increase) is 11.1% (inactive).

For the compound `CCC(=O)Nc1ccc(C(=O)NNC(=O)c2cccs2)cc1`, the activation (HDL uptake increase) is -6.45% (inactive).

As for `COc1ccc(-n2nc(C(=O)N3CCN(Cc4ccc5c(c4)OCO5)CC3)c3ccccc3c2=O)cc1`, the activation (HDL uptake increase) was -5.05% (inactive).

For the compound `COc1ccc(C(C(=O)NC2CCCCC2)N(C(=O)CCl)c2ccc(C)cc2)cc1` (configuration not stated), the activation (HDL uptake increase) was -7.32% (inactive).

For the compound `CC(C)C[C@@H](CN1CCCC1CN1C(=S)NC[C@@H]1Cc1ccc(O)cc1)N1C[C@H](Cc2ccc(O)cc2)N(CCc2ccccc2)C1=S` (some centres not stated), the activation (HDL uptake increase) was 39.2% (inactive).

Take `O=C(CCc1nc2ccccc2c(=O)[nH]1)N1CCN(c2ccccc2Cl)CC1`: the activation (HDL uptake increase) was -8.18% (inactive).

With `C[C@]12C[C@H](O)[C@H]3[C@@H](CCC4=CC(=O)CC[C@@]43C)[C@@H]1CC[C@@H]2C(=O)CO`, the activation (HDL uptake increase) was 6.28% (inactive).

Turning to `O=C1N[C@@H](c2ccccc2)COC(=O)[C@H](Cc2ccc(F)cc2)CC/C=C/C[C@H]1CC(=O)N(CCO)Cc1ccccc1`, the activation (HDL uptake increase) is -5.36% (inactive).

`O=C(c1ccc(CS(=O)Cc2ccccc2Cl)o1)N1CCN(C2CCCCC2)CC1` (configuration not stated): the activation (HDL uptake increase) is 2.09% (inactive).

Turning to `Cc1nn(CC(=O)OC(C)C(=O)Nc2ccccc2[N+](=O)[O-])c(C)c1[N+](=O)[O-]` (configuration not stated), the activation (HDL uptake increase) was -9.77% (inactive).

With `Cc1cc(C)nc(Nc2ncc(O)n2-c2ccccc2)n1`, the activation (HDL uptake increase) is -7.64% (inactive).

For the compound `O=C(CSc1nnc(CCCOc2ccc(Cl)cc2Cl)o1)Nc1ccc(C(=O)O)cc1`, the activation (HDL uptake increase) was -4.13% (inactive).

Regarding `COc1ccc(C(=O)NCc2nnc(SCC(=O)NCc3ccc(F)cc3)o2)cc1`, the activation (HDL uptake increase) is -16% (inactive).

For the compound `CCN(CC(=O)Nc1c(F)cccc1F)C(=O)C1CCN(S(=O)(=O)c2ccc(F)cc2)CC1`, the activation (HDL uptake increase) is 11.6% (inactive).

On to `Cc1ccc(-n2ncc3c(=O)n(CC(=O)N4CCN(c5ccccc5F)CC4)cnc32)cc1C`, for which the activation (HDL uptake increase) was -20.1% (inactive).

Take `COc1ccc2cnnc(SCC(=O)Nc3ccc(C(C)=O)cc3)c2c1OC`: the activation (HDL uptake increase) was -18.2% (inactive).

`Cn1c(=O)oc2cc(S(=O)(=O)NCCN3CCN(c4ccccc4)CC3)ccc21`: the activation (HDL uptake increase) is -5.09% (inactive).

Take `O=S(=O)(Nc1ccccc1OC(F)F)c1ccc(S(=O)(=O)N2CCCC2)cc1`: the activation (HDL uptake increase) is -11.8% (inactive).

For `O=C(CSc1nnc(Cc2cccs2)n1-c1ccccc1)NC1CCCCC1`, the activation (HDL uptake increase) was -15.7% (inactive).

Regarding `COC(=O)C1=C(c2ccc(F)cc2OCc2ccccc2)C[C@@H]2CC[C@H]1N2C(=O)N1CCC(O)CC1`, the activation (HDL uptake increase) is -7.61% (inactive).

Take `Cc1ccc(-c2csc(=Nc3cccnc3)n2CCCN2CCCC2=O)cc1C`: the activation (HDL uptake increase) was -13.4% (inactive).

For `COC(=O)Cc1c(C)c2ccc(OCc3nn[nH]n3)cc2oc1=O`, the activation (HDL uptake increase) is 4.87% (inactive).

On to `COc1ccc(N2CCN(c3oc(-c4ccco4)nc3C#N)CC2)cc1`, for which the activation (HDL uptake increase) was 1.24% (inactive).

On to `COc1ccc(N2CC(NS(=O)(=O)c3cccnc3)CC2=O)cc1` (configuration not stated), for which the activation (HDL uptake increase) was -6.57% (inactive).

With `NNC(=O)Cn1nc(Cc2ccccc2)n(N)c1=O`, the activation (HDL uptake increase) is -4.95% (inactive).

Regarding `Nc1nonc1-n1nnc(C(=O)N/N=C/c2cccs2)c1CSc1ccccc1`, the activation (HDL uptake increase) is -1.92% (inactive).

Regarding `Cc1csc(NC(=O)Cc2ccccc2[N+](=O)[O-])n1`, the activation (HDL uptake increase) is 1.17% (inactive).

With `COc1ccccc1CNC(=O)COC(=O)CSc1ccc(C)c(C)c1`, the activation (HDL uptake increase) is -0.519% (inactive).

Turning to `Cc1ccc(NC(=O)COC(=O)Cn2ccc(=O)[nH]c2=O)cc1C`, the activation (HDL uptake increase) was -10.8% (inactive).

On to `COC(=O)Cc1csc(Nc2ccccc2)n1`, for which the activation (HDL uptake increase) was 0.176% (inactive).

In the case of `CCCNC(=O)c1onc(CSc2ccc(F)cc2)c1C(=O)NCCOC`, the activation (HDL uptake increase) was -11.4% (inactive).

On to `CC[C@]12c3[nH]c4cc(-c5ccco5)ccc4c3CCN1C(=O)[C@@H](CC(=O)NC(C)(C)C)C[C@@H]2C(=O)N1CCN(C(=O)c2ccco2)CC1`, for which the activation (HDL uptake increase) was -20.6% (inactive).

Take `OC(Cc1ccccc1)(c1ccccc1)C1CN2CCC1CC2` (configuration not stated): the activation (HDL uptake increase) is -3.56% (inactive).

Turning to `Cc1nc2c3ccccc3nc(NNC(=O)CCC(=O)N3CCN(c4ccccc4)CC3)n2n1`, the activation (HDL uptake increase) was 6.41% (inactive).

`CN1CCN(CCC(=O)N2c3ccccc3Sc3ccc(Cl)cc32)CC1`: the activation (HDL uptake increase) is -3.2% (inactive).

For the compound `O=C(NCC(=O)N1CCN(c2ccccc2)CC1)c1ccc(Br)o1`, the activation (HDL uptake increase) was -14.4% (inactive).

For the compound `O=C(NCc1ccccc1)C1=C[C@H](c2coc3ccccc3c2=O)C[C@H](OCc2ccc(CO)cc2)O1`, the activation (HDL uptake increase) is -1.3% (inactive).

For `O=C(COC(=O)c1cccs1)Nc1cccc(Cl)c1`, the activation (HDL uptake increase) was -3.43% (inactive).

As to `Cc1ccc(OCCOCCN(C)C)c(Cl)c1`, the activation (HDL uptake increase) was 3.89% (inactive).

As to `O=S(=O)(c1ccccc1F)N1CCN(Cc2cc3c(cc2Br)OCCO3)CC1`, the activation (HDL uptake increase) is -16.4% (inactive).

`Cc1cccc(N2CCN(C(=S)c3ccc(-c4ccccc4[N+](=O)[O-])o3)CC2)c1`: the activation (HDL uptake increase) is -6.03% (inactive).

Regarding `O=C(CCCCCN1C(=O)c2ccccc2C1=O)Nc1ccc(C(=O)O)cc1`, the activation (HDL uptake increase) was -6.25% (inactive).

As to `Cc1cccc(N2C(=O)N3[C@H](c4ccc(Br)cc4)[C@@H]4C(=O)N(C(C)(C)C)C(=O)[C@@H]4[C@]3(C)C2=O)c1`, the activation (HDL uptake increase) was 6.14% (inactive).

Regarding `O=C(NCCCc1ccccc1)c1ccc(CS(=O)Cc2ccc(Cl)cc2)o1` (configuration not stated), the activation (HDL uptake increase) is 5.61% (inactive).

Turning to `CCOC(=O)C1CCCN(C(=O)c2cc(S(=O)(=O)N3CCCCCC3)ccc2OC)C1` (configuration not stated), the activation (HDL uptake increase) is -9.78% (inactive).

On to `C[C@@H]1CN([C@H](C)CO)C(=O)c2cc(NC(=O)Nc3ccc(C(F)(F)F)cc3)ccc2O[C@H]1CN(C)Cc1ccc(Cl)c(Cl)c1`, for which the activation (HDL uptake increase) was -0.198% (inactive).

On to `COc1ccc(CN(C(=O)c2cnccn2)C(C(=O)Nc2ccc(F)cc2)c2ccccc2)cc1` (configuration not stated), for which the activation (HDL uptake increase) was -4.64% (inactive).

With `CCOc1ccc(CN2CCNC(=O)C2CC(=O)NCCCOc2cccnc2)cc1` (configuration not stated), the activation (HDL uptake increase) was -10.4% (inactive).

Take `O=C(c1ccc(CS(=O)Cc2ccccc2Cl)o1)N1CCN(c2ccccn2)CC1` (configuration not stated): the activation (HDL uptake increase) is -16.3% (inactive).

Regarding `CCC1C(=O)NCCN1C(=O)c1ccc(OC)c(OC2CCN(C(C)=O)CC2)c1` (configuration not stated), the activation (HDL uptake increase) is -6.7% (inactive).

With `CC(CN(C)Cc1ccccc1)OC(=O)c1cccc(F)c1` (configuration not stated), the activation (HDL uptake increase) is -8.97% (inactive).

As for `Cc1nn(-c2ccccc2)nc1CNC(=O)C(C)Cc1ccccc1` (configuration not stated), the activation (HDL uptake increase) is -12.5% (inactive).

`N#CCCN1CCN(S(=O)(=O)c2ccc(C3CCCCC3)cc2)CC1`: the activation (HDL uptake increase) was 12% (inactive).

`C/C=C(\C)C(=O)OC1CC(C)(C)C[C@H]2C3=CC[C@@H]4[C@@]5(C)CCC(O[C@@H]6O[C@@H](C(=O)O)[C@@H](O)C(O[C@@H]7OC[C@H](O)[C@@H](O)[C@@H]7O[C@@H]7OC(CO)C(O)[C@@H](O)[C@@H]7O)C6O[C@@H]6OC(CO)C(O)C(O)C6O)[C@@](C)(CO)[C@@H]5CC[C@]4(C)[C@]3(C)CC(O)[C@@]12CO` (some centres not stated): the activation (HDL uptake increase) was -2.08% (inactive).

For the compound `Cc1ccccc1-n1nc2c(c1NC(=O)c1ccco1)CS(=O)(=O)C2`, the activation (HDL uptake increase) was -9.94% (inactive).

Consider `O=C(C1CCC(=O)N(C2CCCC2)C1)N1CCN(Cc2cccc(Cl)c2)CC1` (configuration not stated), for which the activation (HDL uptake increase) was -5.02% (inactive).

On to `COc1cccc(/C=N/n2c(SC)nnc2-c2ccccc2)c1O`, for which the activation (HDL uptake increase) is -1.1% (inactive).

With `COc1ccc(NC(=O)C(Sc2nnc3ccccn23)c2ccccc2)cc1Cl` (configuration not stated), the activation (HDL uptake increase) is -16.3% (inactive).

Turning to `CCC[C@@H](CNC)NC[C@H](Cc1ccccc1)NCCCCc1ccccc1`, the activation (HDL uptake increase) is -3.49% (inactive).

With `CCOc1ccc(N(CC(=O)NC2CCCCCC2)S(=O)(=O)c2ccccc2)cc1`, the activation (HDL uptake increase) was 11.8% (inactive).

`CC(C)c1ccc(OCC(=O)NCCO)cc1`: the activation (HDL uptake increase) is 1.48% (inactive).

Still in this assay, the particulars now being: ldlA[mSR-BI] CHO cells, DiI-HDL uptake fluorescence, 3 h.
For the compound `COc1ccc(CC(=O)N(C)Cc2ccc(C(C)(C)C)cc2)cc1S(=O)(=O)N1CCOCC1`, the AC40 was > 35 µM (inactive).

In the case of `CCOC(=O)C(NC(=O)CC(C)C)(Nc1sc2c(c1C(N)=O)CCCC2)C(F)(F)F` (configuration not stated), the AC40 was > 35 µM (inactive).

As for `COc1ccccc1OCCc1nnc(N)s1`, the AC40 is > 35 µM (inactive).

On to `O=c1c(C=NCCN2CCNCC2)c(O)n(C2CCCCC2)c(=O)n1C1CCCCC1`, for which the AC40 is > 35 µM (inactive).

Regarding `C[C@@H]1CN([C@@H](C)CO)C(=O)Cc2cc(NC(=O)Nc3ccc(C(F)(F)F)cc3)ccc2O[C@@H]1CN(C)S(=O)(=O)c1ccc(Cl)cc1`, the AC40 was 31.1 µM.
